# Experimental data reported in patent publication US20180071280A1, “MODULATORS OF CELL DEATH PROCESSES” (URIFER LTD., priority 2015, published 2018).
# Entries after “also recorded” stand apart in the source; their conditions may differ. Structures can show the parent of a compound that is named as a salt.
# Legend:
# [1] = system: PARP-1; assay: PARP-1 poly-ADP-ribosylation activity in CC cells (WB); assay type: cell-based, human; details: CC cells
# Protocol: (§1) WB analyses were carried out as previously described before. In brief, cells were lysed in RIPA buffer mixed with protease inhibitors and separated on SDS-PAGE gel, transferred to PVDF membrane treated with 5% skim milk to exclude non-specific background and incubated with a primary antibody over-night. The membrane was incubated for 1 h with a secondary antibody conjugated to Horseradish Peroxidase (HRP). The protein-antibody complex was visualized using the SuperSignal West Pico Chemiluminescent Substrate (Thermo scientific, USA).
# [2] = biological target: T1, Fer-PARP-1 complex (Homo sapiens, UniProt P16591); assay: Co-immunoprecipitation of Fer and PARP-1 from SW620 nuclear lysates; assay type: cell-based
# T1 construct: endogenous in cells; host or cells: SW620 cells, nuclear lysates
# T1 sequence (P16591 whole entry, one chain of several): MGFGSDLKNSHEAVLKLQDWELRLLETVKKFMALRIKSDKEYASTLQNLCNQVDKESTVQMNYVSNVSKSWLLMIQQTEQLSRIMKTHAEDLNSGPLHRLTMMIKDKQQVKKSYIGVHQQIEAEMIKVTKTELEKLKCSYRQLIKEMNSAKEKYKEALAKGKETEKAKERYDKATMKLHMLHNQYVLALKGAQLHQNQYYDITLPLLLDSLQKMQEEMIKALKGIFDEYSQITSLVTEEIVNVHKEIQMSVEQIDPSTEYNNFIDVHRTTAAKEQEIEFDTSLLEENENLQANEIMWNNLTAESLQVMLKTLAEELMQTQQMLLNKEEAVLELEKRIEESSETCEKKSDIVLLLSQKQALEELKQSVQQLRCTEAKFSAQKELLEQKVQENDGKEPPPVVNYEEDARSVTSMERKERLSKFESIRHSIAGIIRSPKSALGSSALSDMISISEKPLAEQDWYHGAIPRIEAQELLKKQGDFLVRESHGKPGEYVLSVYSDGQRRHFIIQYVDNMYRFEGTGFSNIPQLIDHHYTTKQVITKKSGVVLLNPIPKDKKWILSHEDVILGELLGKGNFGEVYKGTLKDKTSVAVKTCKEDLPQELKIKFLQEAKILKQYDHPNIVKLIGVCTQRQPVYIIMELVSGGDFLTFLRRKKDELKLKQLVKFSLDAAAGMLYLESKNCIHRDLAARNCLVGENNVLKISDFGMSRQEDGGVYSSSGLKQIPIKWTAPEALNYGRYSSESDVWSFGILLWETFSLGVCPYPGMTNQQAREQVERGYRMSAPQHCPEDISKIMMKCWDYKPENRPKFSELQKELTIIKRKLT
# [3] = Toxicological and histopathological studies in mice; assay type: in vivo
# Protocol: All animal experiments were performed according to the guidelines of the Institutional Animal Care and Use Committee of the Bar-Ilan University. Nude mice (Harlan, Israel) were transferred from ad libitum diet to a more strict diet 2 days before inoculation to lower blood glucose levels, and housed one per cage to ensure an even consumption of food. The diet was comprised of 3 g/mouse/day of standard chow, given at the same time every day. The food was consumed within an average time of 2 hours, consequently the mice were kept without food for the next 22 hours until the daily ration. The mice were kept on this diet throughout the experiment. Mice were inoculated with 1.5×10^6 SW620 CC cells and divided randomly into respective experimental groups. In brief, cells were harvested, counted under the microscope, concentrated by centrifugation (5 min at 500G) and re-suspended in Hank's balanced salt solution (Biological Industries, Israel). Before inoculation the cell suspension was mixed with Martial (BD biosciences, USA) in 1:1 ratio. Four days post-inoculation mice were randomized and placed in cages (n=4 per cage). Mice were injected intra-peritonealy every 12 h for 22 days with 25 mg/kg or 50 mg/kg of the micellar and non-micellar 0260 formulations, and control mice—with empty micelles or vehicles. Mice were sacrificed at day 22, tissues from relevant organs were fixed in paraffin, sectioned (7 μm sections) and stained with Hematoxylin and Eosin stain (H&E stain) for future histopathological evaluation. Blood samples were drawn from sacrificed mice.
# Mice were sacrificed at day 22 of the xenograft experiments, as described above. Tissues from relevant organs and tumors were fixed in paraffin, sectioned (7 μm sections) and stained with Hematoxylin and Eosin stain (H&E stain) for histopathological evaluation as previously described. Blood samples were drawn by cardiac puncture. […] The serum was analyzed immediately using the Cobas 6000-501 chemistry analyzer (Roche Diagnostics, USA) according to the manufacturer's protocols for each assay.
# [4] = system: CC cells; assay: Apoptotic markers in treated CC cells (WB, ICC); assay type: cell-based, human
# Protocol: as §1
# Cells were fixed with 4% paraformaldehyde (30 min) and incubated with Permeabilization Solution containing 0.1% Triton X-100 (Sigma-Aldrich, Israel) in PBS at room temperature for 1 h. Nonspecific binding was blocked with PBS containing 10% fetal bovine serum for 1 h at room temperature. Cells were incubated with specific antibodies diluted 1:100 overnight at 4° C. […] Bound primary antibodies were detected by Alexa Fluor® 488 goat anti-mouse IgG antibody or Alexa Fluor® 594 goat anti-rabbit IgG antibody (Molecular Probes, Invitrogen, U.K.). […] Nonspecific staining, as determined by binding to the secondary antibody only, was negligible. The immunostained slides were examined under the fluorescence microscope AxioimagerZ1 (Zeiss, Germany) or confocal fluorescence microscope (Olympus-FV1000).
# [5] = biological target: DAPK1 (Death-associated protein kinase 1) (Homo sapiens, UniProt P53355); assay: Kinase panel assay, DAPK1; assay type: biochemical; details: above threshold
# DAPK1 (Death-associated protein kinase 1), sequence (P53355 whole entry): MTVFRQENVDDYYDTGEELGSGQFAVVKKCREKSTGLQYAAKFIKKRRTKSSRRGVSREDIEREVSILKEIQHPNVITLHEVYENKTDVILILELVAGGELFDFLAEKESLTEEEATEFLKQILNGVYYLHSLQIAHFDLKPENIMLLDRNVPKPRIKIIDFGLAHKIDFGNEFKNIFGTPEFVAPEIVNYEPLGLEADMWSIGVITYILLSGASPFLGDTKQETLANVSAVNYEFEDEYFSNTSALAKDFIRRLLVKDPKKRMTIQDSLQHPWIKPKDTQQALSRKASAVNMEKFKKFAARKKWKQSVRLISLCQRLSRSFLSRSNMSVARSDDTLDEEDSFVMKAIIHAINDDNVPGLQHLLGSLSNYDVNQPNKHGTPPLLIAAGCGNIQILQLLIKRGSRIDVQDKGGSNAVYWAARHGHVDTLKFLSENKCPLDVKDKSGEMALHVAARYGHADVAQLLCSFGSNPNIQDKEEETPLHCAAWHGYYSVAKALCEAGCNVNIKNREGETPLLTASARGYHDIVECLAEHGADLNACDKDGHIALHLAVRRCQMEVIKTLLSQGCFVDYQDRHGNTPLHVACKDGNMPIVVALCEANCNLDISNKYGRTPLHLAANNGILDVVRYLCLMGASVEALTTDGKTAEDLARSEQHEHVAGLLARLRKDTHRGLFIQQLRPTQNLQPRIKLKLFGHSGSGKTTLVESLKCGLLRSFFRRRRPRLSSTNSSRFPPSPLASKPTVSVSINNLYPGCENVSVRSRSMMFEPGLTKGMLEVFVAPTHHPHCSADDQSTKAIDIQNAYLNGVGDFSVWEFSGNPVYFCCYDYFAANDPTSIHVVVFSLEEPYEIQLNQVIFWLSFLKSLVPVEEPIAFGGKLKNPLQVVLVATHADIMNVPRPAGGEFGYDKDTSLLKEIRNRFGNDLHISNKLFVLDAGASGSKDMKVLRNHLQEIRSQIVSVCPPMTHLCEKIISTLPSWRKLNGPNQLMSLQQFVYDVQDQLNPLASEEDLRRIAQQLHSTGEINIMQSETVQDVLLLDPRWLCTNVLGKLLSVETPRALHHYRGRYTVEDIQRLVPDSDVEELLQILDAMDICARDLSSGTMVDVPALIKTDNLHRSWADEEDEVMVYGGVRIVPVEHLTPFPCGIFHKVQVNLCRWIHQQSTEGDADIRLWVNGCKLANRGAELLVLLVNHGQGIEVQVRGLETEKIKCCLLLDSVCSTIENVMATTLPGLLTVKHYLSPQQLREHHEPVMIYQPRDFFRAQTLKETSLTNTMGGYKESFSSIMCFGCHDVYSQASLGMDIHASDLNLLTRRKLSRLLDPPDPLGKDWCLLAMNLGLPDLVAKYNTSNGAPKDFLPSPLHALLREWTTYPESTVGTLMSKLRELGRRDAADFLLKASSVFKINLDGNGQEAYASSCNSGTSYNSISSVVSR
# Protocol: (§2) Kinase panel assays were performed using the FRET-based Z′-LYTE, Lantha Screen and Adapta enzymatic kinase assay systems (Life Technologies, Carlsbad, Calif.), which were carried out using the SelectScreen Kinase Profiling Service (Life Technologies). The standard reaction contained 2 μM peptide substrate, ATP at the optimal assay concentration, 50 mM HEPES (pH 7.5), 0.01% Brij-35, 10 mM MgCl2, 1 mM EGTA, and the tested kinase. Each kinase was checked for its activity in duplicate data points (n=2) and was assayed following the detailed procedures outlined in the SelectScreen service. Percent inhibition or ATP displacement (For Lantha screen) represent a ratio of phosphorylated/ATP bound product formed in the presence of the compound compared with phosphorylated/ATP bound product formed in reactions containing 1% DMSO.
# (§3) Kinome technique was used for monitoring phosphorylation events and phosphorylation targets of 0260-Fer interaction, using peptide arrays for human targets and phosphorylation-specific antibodies. Construction of peptide arrays relied on information from phosphorylation databases. The following proteins were determined as significant above the threshold of 40% kinase activity inhibition or ATP displacement to the Kinase domain site.
# [6] = biological target: MINK1 (Homo sapiens, UniProt Q8N4C8); assay: Kinase panel assay, MINK1; assay type: biochemical; details: above threshold
# MINK1, sequence (Q8N4C8 1-320 limits assumed): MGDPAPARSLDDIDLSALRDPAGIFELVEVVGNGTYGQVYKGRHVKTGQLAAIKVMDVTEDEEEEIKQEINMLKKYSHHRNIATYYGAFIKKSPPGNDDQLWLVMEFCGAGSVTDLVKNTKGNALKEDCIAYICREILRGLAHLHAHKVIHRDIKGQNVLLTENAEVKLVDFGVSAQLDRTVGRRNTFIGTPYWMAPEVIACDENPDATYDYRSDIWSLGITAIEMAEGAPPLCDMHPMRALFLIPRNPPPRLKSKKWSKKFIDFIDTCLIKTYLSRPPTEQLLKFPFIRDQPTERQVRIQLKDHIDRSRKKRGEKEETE
# Protocol: as §2, §3
# [7] = biological target: CAMK1 (Calcium/calmodulin-dependent protein kinase type 1) (Homo sapiens, UniProt Q14012); assay: Kinase panel assay, CAMK1; assay type: biochemical; details: above threshold
# CAMK1 (Calcium/calmodulin-dependent protein kinase type 1), sequence (Q14012 whole entry): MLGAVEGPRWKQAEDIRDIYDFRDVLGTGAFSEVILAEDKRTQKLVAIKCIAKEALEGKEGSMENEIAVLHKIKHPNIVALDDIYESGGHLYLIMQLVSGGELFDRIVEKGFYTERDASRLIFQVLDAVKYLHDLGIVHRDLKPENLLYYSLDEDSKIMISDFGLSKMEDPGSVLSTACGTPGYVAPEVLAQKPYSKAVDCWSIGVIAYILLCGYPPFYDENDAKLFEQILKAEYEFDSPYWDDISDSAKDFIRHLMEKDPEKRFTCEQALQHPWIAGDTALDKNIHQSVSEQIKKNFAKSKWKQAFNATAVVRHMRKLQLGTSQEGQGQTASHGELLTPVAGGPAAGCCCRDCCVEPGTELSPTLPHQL
# Protocol: as §2, §3
# [8] = biological target: Fer (Homo sapiens, UniProt P16591); assay: Immunoprecipitation of Fer from 0260 treated SW620 CC cells; assay type: binding; design: endogenous in cells; host or cells: SW620 colon carcinoma cells
# Fer, sequence (P16591 whole entry): as the sequence (P16591 whole entry, one chain of several) above
# Protocol: Protein lysates (1 mg) were prepared from tissues of adult mice according to previously described protocol, including incubation with Protein A Sepharose (GE Healthcare) to avoid nonspecific binding. Protein lysates were incubated with specific antibodies diluted 1:100 overnight at 4° C. Antigen-antibody complexes were precipitated with Protein A Sepharose, washed twice in PBS and eluted in Sample Buffer (2% SDS, 1% DTT 0.02% bromophenol blue 10% glycerol, 12.5 mM EDTA, 50 mM Tris-HCl pH 6.8) at room temperature for 10 min and at 100° C. for 8 min. Eluates were separated on SDS-PAGE and visualized by WB using specific antibodies.
# To examine the effect of 0260 micellar formulation on Fer in malignant cells, the kinase was immuno-precipitated from untreated and from 0260 treated SW620 CC cells.
# [9] = system: CC cells; assay: Mitochondrial membrane potential (TMRE) in CC cells; assay type: cell-based, human; details: malignant cells
# Protocol: For microscopic and ELISA based analyses of cells MMP, Tetra-Methyl-Rhodamine-Ethyl ester (TMRE) incorporation assay was carried out according to the manufacturer's instructions (Abcam, USA).
smiles,measurement,setting,value
"CC(C)c1ccc(-c2cn3nc(N4CCC(CN5CCN(C)CC5)CC4)sc3n2)cc1 [compound 0260, tartarate salt of 6-(4-isopropyl-phenyl)-2-{4-[(4-methyl-piperazin-1-yl)methyl]piperidin-1-yl}-imidazo [2,1-b][1,3,4]thiadiazole]",poly-ADPr / PARP-1 poly-ADP-ribosylation activity,[1],induction of poly-ADPr; also recorded: significant increase
same,association of Fer with PARP-1,[2],dissociated Fer from PARP-1
same,"toxic effects (blood markers of liver and kidney functions, blood electrolytes)",[3]; daily injection,did not cause any toxic effects or adverse side effects
same,"histopathology of heart, kidneys and liver","[3]; mouse, in vivo",failed to detect any abnormalities related to toxicity
same,effect on animal's weight,[3]; xenograft experiments,no significant effect
same,"apoptotic markers (cleaved caspase 3, cleaved PARP-1, AIF translocation)",[4],not observed
same,kinase activity inhibition or ATP displacement,[5],> 40%
same,kinase activity inhibition or ATP displacement,[6],> 40%
same,kinase activity inhibition or ATP displacement,[7],> 40%
same,IP of Fer by antibodies toward the N-terminal tail,[8],did not disable the IP of Fer
same,Mitochondrial Membrane Potential (MMP),[9],depolarization
